We go through 45 compounds from patent US10934302B1, “SHP2 phosphatase inhibitors and methods of use thereof” (Relay Therapeutics, Inc., priority 2018, dated 2021).

Each structure is given as a SMILES string. pIC50: −log10 of the molar value.

One may read the pIC50 as the IC50 on a negative log10 scale, so that one unit is a factor of ten. Read a low pIC50 as a large IC50.

In this assay the target is SHP2 (Homo sapiens (Human), UniProt Q06124). As to the kind of experiment: SHP2 allosteric inhibition assay (DiFMUP prompt fluorescence). The assay is classed as biochemical. Conditions: 0.25 nM SHP2 activated with 0.5 μM peptide IRS1_pY1172(dPEG8)pY1222; substrate DiFMUP.
Chain of SHP2 (Q06124 whole entry): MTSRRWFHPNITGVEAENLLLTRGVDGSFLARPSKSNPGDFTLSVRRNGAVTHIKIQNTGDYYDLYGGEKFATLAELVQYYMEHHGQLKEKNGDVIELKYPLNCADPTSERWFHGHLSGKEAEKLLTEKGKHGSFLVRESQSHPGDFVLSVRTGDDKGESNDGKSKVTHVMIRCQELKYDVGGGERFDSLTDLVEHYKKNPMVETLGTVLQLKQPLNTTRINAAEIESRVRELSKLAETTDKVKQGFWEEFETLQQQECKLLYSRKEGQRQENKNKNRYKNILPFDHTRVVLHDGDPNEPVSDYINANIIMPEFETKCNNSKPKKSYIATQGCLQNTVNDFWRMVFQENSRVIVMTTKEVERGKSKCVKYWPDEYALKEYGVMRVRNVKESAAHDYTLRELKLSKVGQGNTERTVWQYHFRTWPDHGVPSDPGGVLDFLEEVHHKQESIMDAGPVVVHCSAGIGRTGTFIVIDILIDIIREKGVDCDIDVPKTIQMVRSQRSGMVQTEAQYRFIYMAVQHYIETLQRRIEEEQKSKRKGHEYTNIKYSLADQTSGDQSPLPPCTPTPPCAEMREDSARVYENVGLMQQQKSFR
In the case of `N[C@@H]1c2ccccc2C[C@@]12CC=C(c1cnc3c(N4CCCc5ncccc54)n[nH]c3n1)CC2` (single isomer, unassigned) [Example 173], the pIC50 is < 5.00.

Take `Nc1nccc(Oc2cnc(N3CCC4(CC3)Cc3ccccc3[C@H]4N)cn2)c1Cl` [Example 133, (3S)-1′-{5-[(2-amino-3-chloropyridin-4-yl)oxy]pyrazin-2-yl}-1,3-dihydrospiro[indene-2,4′-piperidin]-3-amine]: the pIC50 was ≥ 7.30.

Turning to `Cc1n[nH]c2nc(N3CCC4(CC3)Cc3ccccc3[C@H]4N)c(CO)nc12` [Example 156, {6-[(3S)-3-amino-1,3-dihydrospiro[indene-2,4′-piperidin]-1′-yl]-3-methyl-1H-pyrazolo[3,4-b]pyrazin-5-yl}methanol], the negative-log IC50 (pIC50) was ≥ 7.30.

Take `N[C@@H]1c2ccccc2CC12CCN(c1ccc3c(N4CCCCC4)n[nH]c3n1)CC2` [Example 209]: the pIC50 was 5.00 to 6.00.

As for `N[C@@H]1c2ccccc2CC12CCN(c1cnc(SCc3cccc(Cl)n3)cn1)CC2` [Example 263, (S)-1′-(5-(((6-chloropyridin-2-yl)methyl)thio)pyrazin-2-yl)-1,3-dihydrospiro[indene-2,4′-piperidin]-1-amine], the negative logarithm of the IC50 (pIC50) is ≥ 7.30.

Turning to `CS(=O)(=O)c1cccc2c1CCCN2c1n[nH]c2nc(N3CCC4(CC3)Cc3ccccc3[C@H]4N)c(CO)nc12` [Example 98, {6-[(3S)-3-amino-1,3-dihydrospiro[indene-2,4′-piperidin]-1′-yl]-3-(5-methanesulfonyl-1,2,3,4-tetrahydroquinolin-1-yl)-1H-pyrazolo[3,4-b]pyrazin-5-yl}methanol], the negative logarithm of the IC50 (pIC50) is 6.00 to 7.30.

On to `Cc1nc2c(N3CCOCC3)n[nH]c2nc1N1CCC2(CC1)Cc1ccccc1[C@H]2N` [Example 160, (3S)-1′-[5-methyl-3-(morpholin-4-yl)-1H-pyrazolo[3,4-b]pyrazin-6-yl]-1,3-dihydrospiro[indene-2,4′-piperidin]-3-amine], for which the pIC50 was ≥ 7.30.

In turn, `Cc1nc2c(C#N)n[nH]c2nc1N1CCC2(CC1)Cc1ccccc1[C@H]2N` [Example 163, 6-[(3S)-3-amino-1,3-dihydrospiro[indene-2,4′-piperidin]-1′-yl]-5-methyl-1H-pyrazolo[3,4-b]pyrazine-3-carbonitrile] gave a negative logarithm of the IC50 (pIC50) of 5.00 to 6.00.

Regarding `N[C@H]1c2ccccc2CC12CCN(c1cnc3c(-c4cccc5ncccc45)n[nH]c3n1)CC2` [Example 69], the pIC50 was ≥ 7.30.

For `N[C@@H]1c2ccccc2CC12CCN(c1nn3cc(C4CCCC4)nc3s1)CC2` [Example 252, (1S)-1′-{6-cyclopentylimidazo[2,1-b][1,3,4]thiadiazol-2-yl}-1,3-dihydrospiro[indene-2,4′-piperidin]-1-amine], the pIC50 was ≥ 7.30.

Turning to `Cn1ccc2c(c1=O)CCCN2c1n[nH]c2nc(N3CCC4(CC3)Cc3cc(F)ccc3[C@H]4N)cnc12` [Example 52], the pIC50 is ≥ 7.30.

`Cn1c(N2CCC3(CC2)Cc2ccccc2[C@H]3N)nc2[nH]nc(N3CCCCC3)c2c1=O` (racemic) [Example 200]: the negative logarithm of the IC50 (pIC50) was ≥ 7.30.

Consider `N[C@@H]1c2ccccc2CC12CCN(c1nccn3ccnc13)CC2` [Example 180], for which the negative-log IC50 (pIC50) is 5.00 to 6.00.

As to `NC1C2CC2CC12CCN(c1cnc3c(N4CCCc5ncccc54)n[nH]c3n1)CC2` (stereo not drawn) [Example 7, 1′-(3-(3,4-dihydro-1,5-naphthyridin-1(2H)-yl)-1H-pyrazolo[3,4-b]pyrazin-6-yl)spiro[bicyclo[3.1.0]hexane-3,4′-piperidin]-2-amine], the negative-log IC50 (pIC50) is ≥ 7.30.

Consider `Cn1cc(-c2ccc3c(n2)CCCN3c2n[nH]c3nc(N4CCC5(CC4)Oc4ccccc4[C@H]5N)cnc23)cn1` [Example 60], for which the pIC50 is ≥ 7.30.

For `Nc1nccc(-c2n[nH]c3nc(N4CCC5(CC4)Cc4ccccc4[C@H]5N)cnc23)c1Cl` [Example 79, (3S)-1′-[3-(2-amino-3-chloropyridin-4-yl)-1H-pyrazolo[3,4-b]pyrazin-6-yl]-1,3-dihydrospiro[indene-2,4′-piperidin]-3-amine], the pIC50 is ≥ 7.30.

Turning to `Cn1ccc(Sc2cnc(N3CCC4(CC3)Cc3ccccc3[C@H]4N)cn2)c(Cl)c1=O` [Example 132, 4-({5-[(3S)-3-amino-1,3-dihydrospiro[indene-2,4′-piperidin]-1′-yl]pyrazin-2-yl}sulfanyl)-3-chloro-1-methyl-1,2-dihydropyridin-2-one], the pIC50 is ≥ 7.30.

Consider `N[C@@H]1c2ccccc2CC12CCN(c1nc3[nH]nc(N4CCCc5ncccc54)c3nc1C(F)F)CC2` [Example 140, (S)-1′-(5-(difluoromethyl)-3-(3,4-dihydro-1,5-naphthyridin-1(2H)-yl)-1H-pyrazolo[3,4-b]pyrazin-6-yl)-1,3-dihydrospiro[indene-2,4′-piperidin]-1-amine], for which the pIC50 was ≥ 7.30.

For `Cc1nc(N2CCC3(CC2)Cc2c(F)cccc2[C@H]3N)c(CO)nc1-c1cccc(Cl)c1Cl` [Example 269, (S)-(3-(1-amino-4-fluoro-1,3-dihydrospiro[indene-2,4′-piperidin]-1′-yl)-6-(2,3-dichlorophenyl)-5-methylpyrazin-2-yl)methanol], the pIC50 is ≥ 7.30.

For `N#Cc1ccc2c(c1)N(C1(C#N)CC1)CCN2c1n[nH]c2nc(N3CCC4(CC3)Cc3ccccc3[C@H]4N)cnc12` [Example 39], the pIC50 is ≥ 7.30.

Take `Nc1nccc(Sc2cnc(N3CCC4(CC3)Cc3ccccc3[C@H]4N)cn2)c1Cl` [Example 81, (S)-1′-(5-((2-amino-3-chloropyridin-4-yl)thio)pyrazin-2-yl)-1,3-dihydrospiro[indene-2,4′-piperidin]-1-amine]: the negative-log IC50 (pIC50) was ≥ 7.30.

Turning to `Cn1cc(-c2ccc3c(n2)CCCN3c2n[nH]c3nc(N4CCC5(CC4)Cc4c(F)cccc4[C@H]5N)cnc23)cn1` [Example 42], the pIC50 is ≥ 7.30.

On to `N[C@@H]1c2ccccc2OC12CCN(c1nc3[nH]ncc3nc1CO)CC2` [Example 159, {6-[(3R)-3-amino-3H-spiro[1-benzofuran-2,4′-piperidin]-1′-yl]-1H-pyrazolo[3,4-b]pyrazin-5-yl}methanol], for which the pIC50 is ≥ 7.30.

`N[C@@H]1c2cc(F)ccc2OC12CCN(c1cnc(SCC3CC3)cn1)CC2` [Example 239]: the pIC50 is 6.00 to 7.30.

Take `Cn1ccc2c(c1=O)CCCN2c1n[nH]c2nc(N3CCC4(CC3)Cc3ccc(F)cc3[C@H]4N)cnc12` [Example 58]: the pIC50 is ≥ 7.30.

On to `N[C@@H]1c2ccccc2CC12CCN(c1ncc(N3CCCc4ccccc43)c(=O)[nH]1)CC2` [Example 210], for which the pIC50 was < 5.00.

Turning to `Cn1cnc2ccnc(N3CCC4(CC3)Cc3ccccc3[C@H]4N)c21` [Example 183], the pIC50 is < 5.00.

As for `Cc1cnc(CO)c(N2CCC3(CC2)Cc2ccccc2[C@@H]3N)n1` (single isomer, unassigned) [Example 121], the pIC50 was ≥ 7.30.

As for `COc1cccc(-n2ccc(C(=O)N3CCC4(CC3)Cc3ccccc3[C@H]4N)n2)c1` [Example 287, (1S)-1′-[1-(3-methoxyphenyl)-1H-pyrazole-3-carbonyl]-1,3-dihydrospiro[indene-2,4′-piperidin]-1-amine], the pIC50 is ≥ 7.30.

Regarding `Cc1c(NCc2cccnc2)ccnc1N1CCC2(CC1)Cc1ccccc1[C@H]2N` [Example 199], the negative-log IC50 (pIC50) is ≥ 7.30.

`Cc1cnc(CO)c(N2CCC3(CC2)Cc2ccccc2[C@H]3N)n1` (single isomer, unassigned) [Example 122]: the negative logarithm of the IC50 (pIC50) was ≥ 7.30.

Take `N[C@@H]1c2ccccc2CC12CCN(c1cnc(OC3CCCC3)cn1)CC2` [Example 251, (3S)-1′-[5-(cyclopentyloxy)pyrazin-2-yl]-1,3-dihydrospiro[indene-2,4′-piperidin]-3-amine]: the negative logarithm of the IC50 (pIC50) was < 5.00.

Regarding `Cc1c(Sc2ccnc(N)c2Cl)nc2sc(N3CCC4(CC3)Cc3ccccc3[C@H]4N)nn12` [Example 223], the pIC50 is ≥ 7.30.

`N[C@@H]1c2ccccc2OC12CCN(c1cnc(Sc3ccnc(Cl)c3F)cn1)CC2` [Example 95]: the pIC50 is ≥ 7.30.

`Cn1cc(-c2ccc3c(n2)CCCN3c2n[nH]c3nc(N4CCC5(CC4)Cc4ccccc4[C@H]5N)c(CO)nc23)cn1` [Example 101] showed a pIC50 of 6.00 to 7.30.

For `N[C@@H]1c2ccccc2CC12CCN(c1cnc(N3CCCc4ncccc43)cn1)CC2` [Example 146, (3S)-1′-[5-(1,2,3,4-tetrahydro-1,5-naphthyridin-1-yl)pyrazin-2-yl]-1,3-dihydrospiro[indene-2,4′-piperidin]-3-amine], the pIC50 was ≥ 7.30.

Turning to `Nc1nc(N2CCC3(CC2)Cc2ccccc2[C@H]3N)cnc1-c1cccc(Cl)c1Cl` [Example 22, (3S)-1′-[6-amino-5-(2,3-dichlorophenyl)pyrazin-2-yl]-1,3-dihydrospiro[indene-2,4′-piperidin]-3-amine], the pIC50 is ≥ 7.30.

With `N[C@H]1c2ccccc2CC12CN(c1cnc3c(N4CCCc5ncccc54)n[nH]c3n1)C2` [Example 114], the pIC50 is ≥ 7.30.

For `N[C@@H]1c2ccccc2CC12CCN(c1cnc(Sc3cccc(Cl)c3Cl)cn1)CC2` [Example 147, (S)-1′-(5-((2,3-dichlorophenyl)thio)pyrazin-2-yl)-1,3-dihydrospiro[indene-2,4′-piperidin]-1-amine], the pIC50 is ≥ 7.30.

The compound `N[C@@H]1c2ccccc2CC12CCN(c1ncc(N3CCCc4ncccc43)nc1CO)CC2` [Example 211, {3-[(3S)-3-amino-1,3-dihydrospiro[indene-2,4′-piperidin]-1′-yl]-6-(1,2,3,4-tetrahydro-1,5-naphthyridin-1-yl)pyrazin-2-yl}methanol] showed a pIC50 of 6.00 to 7.30.

Consider `Nc1nccc(Sc2ccc(N3CCC4(CC3)Cc3ccc(F)cc3[C@H]4N)cn2)c1Cl` [Example 218], for which the negative-log IC50 (pIC50) is ≥ 7.30.

Regarding `Cc1nc(N2CCC3(CC2)Cc2ccccc2[C@H]3N)cnc1N1CCCc2ncccc21` [Example 197], the pIC50 was ≥ 7.30.

For `N[C@@H]1c2ccccc2CC12CCN(c1cnc3c(-c4cc5cc[nH]c5cc4F)n[nH]c3n1)CC2` [Example 72], the pIC50 is ≥ 7.30.

As to `N[C@@H]1c2cccc(F)c2OC12CCN(c1cnc3c(N4CCCc5ncccc54)n[nH]c3n1)CC2` [Example 54], the pIC50 was ≥ 7.30.

Consider `Nc1nccc(Oc2n[nH]c3nc(N4CCC5(CC4)Cc4ccccc4[C@H]5N)cnc23)c1Cl` (single isomer, unassigned) [Example 137], for which the pIC50 was ≥ 7.30.
